Results taken from US20100093861A1, “TREATMENT OF INSULIN RESISTANCE OR DISEASES ASSOCIATED WITH INSULIN RESISTANCE” (Stevia ApS, priority 2006, published 2010).

Key:
[1] = test system: InsII; test: Affymetrix gene chip analysis of KKAy islets: InsII; assay type: in vivo, mice; conditions: ISV vs. KKAy control islets, 9 weeks
Procedure: (§1) cRNA preparation and in vitro transcription: In total 6 Affymetrix arrays MOE430 2.0 probe array cartridge were used i.e. for analysis of 3 replicas for the KKAy control group and the ISV group, respectively. Each of the 6 samples consisted of pooled RNA from 3-4 KKAy mice. Preparation of target for hybridization was prepared from 340 ng of total RNA using MessageAmp™ II aRNA Amplification Kits (Ambion), according to the manufacturers instructions. Arrays were hybridised and scanned as described elsewhere (Kruhoffer et al., 2005).

[2] = test system: 11-beta-HSD-1; test: Affymetrix gene chip analysis of KKAy islets: 11-beta-HSD-1; assay type: in vivo, mice; conditions: ISV vs. KKAy control islets, 9 weeks
Procedure: as §1

[3] = test system: C/EBPalpha; test: Affymetrix gene chip analysis of KKAy islets: C/EBPalpha; assay type: in vivo, mice; conditions: ISV vs. KKAy control islets, 9 weeks
Procedure: as §1

[4] = test system: Akt1; test: Affymetrix gene chip analysis of KKAy islets: Akt1; assay type: in vivo, mice; conditions: ISV vs. KKAy control islets, 9 weeks
Procedure: as §1

[5] = test system: Pdx1; test: Affymetrix gene chip analysis of KKAy islets: Pdx1; assay type: in vivo, mice; conditions: ISV vs. KKAy control islets, 9 weeks
Procedure: as §1

[6] = test system: diabetic KKAy-mice; test: In vivo study of plasma concentrations of insulin, glucose and triglycerides in KKAy-mice after isosteviol or soybean protein (Example 1); conditions: oral in diet
Procedure: The following experiment was performed to investigate the effect of isosteviol (ISV) and soybean protein on plasma concentrations of insulin, glucose and triglycerides. Four experimental groups, each consisting of 10 KKAy-mice (obtained from Clea Japan, Tokyo, Japan) and one control group of 20 C57 mice (obtained from Taconic, Ry, Denmark), all 5 weeks old, were feed the following three test diets in a period of nine weeks. • A: standard chow diet (SCD)(ALTROMIN 1320, Brogaarden, Hørsholm). Diet A was fed to one experimental group and to the control group. • B: standard chow diet (SCD) (ALTROMIN 1320, Brogaarden, Hørsholm)+0.02 g/kg BW of ISV (Waco Chemicals, Osaka, Japan). • C: diet containing 50 weight-% standard chow+50 weight-% Soybean Protein (SBP) (NutriPharma, Oslo)
Hormones and lipids were measured from blood sample at start and end of the treatment period. Fasting blood glucose as well as body weight were measured once a week. […] The blood was taken from the tail of the animals.
Isosteviol (ISV) and Soybean Protein (SBP) were given orally. The SBP were incorporated in the food pellet and the ISV was dissolved in absolute ethanol, the solution was inoculated on the pellets and the ethanol was allowed to evaporate, leaving the ISV on the food pellet. All diets were adjusted for vitamins and minerals, so that all diets content the same amount. Beside that, water was given ad libitum and a light cycle of 12 hours/12 hours was used. The experiment was performed in accordance with the guidelines of the Danish Council on Animal Care.

[7] = test system: Ins1; test: Relative real time RT-PCR in islets of KKAy mice (Example 3): Ins1; assay type: in vivo; conditions: 9 weeks
Procedure: Islets were isolated by the collagenase digestion technique. In brief, the animals were anesthetized with pentobarbital (50 mg/kg intraperitoneally) and midline laparotomy was performed. The pancreas was retrogradely filled with 3 mL ice-cold Hanks balanced salt solution (([HBSS] Sigma Chemical, St Louis, Mo.) supplemented with 0.3 mg/ml collagenase Boehringer Mannheim GmbH, Germany). The pancreas was subsequently removed and incubated for 19 minutes at 37° C. After rinsing in HBSS, the islets were handpicked under a stereomicroscope and immediately transferred to a tubes containing 1 ml Trizol (Gibco/Invitrogene, Calsbad, Calif., USA). The islets isolated from the NMRI mice were incubated overnight at 37° C. and 95% normal atmosphere/5% CO2 in 10 ml RPMI 1640 containing 11.1 mmol/L glucose supplemented with penicillin G and 100 μg/mL streptomycin (all Gibco/Invitrogene, Calsbad, Calif., USA).
For each group, islets from 3-4 mice (180-200 islets) were pooled in 1 ml Trizol reagent (Gibco/lnvitrogene, Calsbad, Calif., USA) before RNA purification. Total RNA was extracted according to the manufactures' instructions. RNA was quantified by measuring absorbance at 260 and 280 nm. The quality of the RNA was checked by the Agilent 2100 bioanalyzer (Agilent, Santa Clara, USA). […]

[8] = test system: InsI; test: Affymetrix gene chip analysis of KKAy islets: InsI; assay type: in vivo, mice; conditions: ISV vs. KKAy control islets, 9 weeks
Procedure: as §1

[9] = test system: visfatin; test: Affymetrix gene chip analysis of KKAy islets: visfatin; assay type: in vivo, mice; conditions: ISV vs. KKAy control islets, 9 weeks
Procedure: as §1

[10] = test system: Foxa2; test: Affymetrix gene chip analysis of KKAy islets: Foxa2; assay type: in vivo, mice; conditions: ISV vs. KKAy control islets, 9 weeks
Procedure: as §1

[11] = after 9 weeks of treatment, compared to standard chow diet, ISV 0.02 g/kg BW, SBP 50 weight-% of diet

C[C@@]12CC[C@@H]3[C@@](CC[C@H]4[C@@]3(C)CCC[C@@]4(C)C(=O)O)(CC1=O)C2 (single isomer, unassigned; ent-16) [ISV, ent-16-ketobeyeran-19-oic acid]
array: change of InsII expression [1]: no changes
array: change of 11-beta-HSD-1 expression [2]: down regulation
array: change of C/EBPalpha expression [3]: down regulation
array: change of Akt1 expression [4]: no changes
array: change of Pdx1 expression [5]: upregulation
reduction of plasma glucose concentration, SCD vs. treatment [6, 11]: 73%
reduction of plasma insulin concentration, SCD vs. treatment [6, 11]: 192%
plasma triglyceride concentration, SCD vs. treatment ([6]; nine weeks treatment): 101%
increase in Ins1 expression ([7]; RT-PCR): more than 2 fold
increased expression of Ins1, ISV group vs. control group ([7]; normalized to 18S rRNA): 132%
array: change of InsI expression [8]: did not show any statistical significant increase
array: change of visfatin expression [9]: no changes
array: increased expression in Foxa2 [10]: 1.9 fold
